Measurements published in patent US20220023289A1, “Application Of Pyrroloquinoline Quinone In Preparation Of Medicament Used For Preventing And Treating Acute Altitude Sickness And Acute Altitude Hypoxia Injury” (priority 2018, published 2022).

Columns and labels:
[1] = Body weight of mice before closed hypoxia tolerance test
[2] = Mice weight before hypoxia tolerance test of simulated 10000 m altitude acute decompression
[3] = system: rats exposed to acute altitude hypoxia; assay: Protein metabolism in rats exposed to acute altitude hypoxia; assay type: in vivo, Wistar rat
Description: (§1) Select healthy Wistar rats weight 160-200 g, half female and half male. After feeding for 3 days, these Wistar rats are randomly divided into ten groups according to their body weight, each group has 16±2 rats. The groups are divided as follows: five groups of the hypoxic exposure drug test group, respectively, are given 0.91 mg/kg, 1.83 mg/kg, 3.66 mg/kg, 7.31 mg/kg, and 14.63 mg/kg drugs. […] After continuous intragastric administration for 7 days, the animals in the hypoxic exposure group are simultaneously put into the decompression and hypoxia compound experimental chamber, the hatch is closed, and the pressure is reduced at a speed of 10 m/s. After being raised to an altitude of 6000 m and maintained for 8 hours, the speed in 10 m/s drops is reduced to normal altitude, open the hatch, and then take out the animal, collect blood samples (after standing for 1 hour, the supernatant is centrifuged and stored at −20° C.), and liver tissue samples. Detection indicator includes body weight, serum blood glucose, ATP, lactic acid, endothelin, nitric oxide, SOD, CO, MDA related to oxidative stress, and total protein, albumin, triglycerides, total cholesterol, high-density lipoprotein cholesterol, low-density lipoprotein cholesterol, glutamic pyruvic transaminase, total bilirubin, gluamic oxalacetic transaminase, serum urea nitrogen, creatinine, uric acid, lactate dehydrogenase, creatine kinase, α-hydroxybutyrate dehydrogenase; liver ATP, hepatic glycogen. Except that the formal oxygen control animal group is not put into the decompression and hypoxia compound experimental chamber, other experimental conditions and detection indicators are the same.
(§2) Measure blood glucose, total protein, albumin, triglycerides, total cholesterol, high-density lipoprotein cholesterol, low-density lipoprotein cholesterol, glutamic-pyruvic transaminase, total bilirubin, glutamic oxalacetic transaminase, serum urea nitrogen, creatinine, uric acid, lactate dehydrogenase, creatine kinase, α-hydroxybutyrate dehydrogenase, blood homocysteine by using an automatic blood biochemical analyzer.

[4] = system: rats exposed to acute altitude hypoxia; assay: Blood glucose in rats exposed to acute altitude hypoxia (6000 m, 8 h, after 7 days intragastric); assay type: in vivo, Wistar rat; details: for Blood sugar: female rats, hypoxia
Description: as §1, §2

[5] = administration for 14 days, 1.32 mg/kg
[6] = administration for 14 days, 2.64 mg/kg
[7] = administration for 14 days, 5.28 mg/kg
[8] = administration for 14 days, 10.56 mg/kg
[9] = administration for 14 days, 21.12 mg/kg
[10] = administration for seven days, 1.32 mg/kg
[11] = administration for seven days, 2.64 mg/kg
[12] = administration for seven days, 5.28 mg/kg
[13] = administration for seven days, 10.56 mg/kg
[14] = administration for seven days, 21.12 mg/kg
[15] = administration for three days, 1.32 mg/kg
[16] = administration for three days, 2.64 mg/kg
[17] = administration for three days, 5.28 mg/kg
[18] = administration for three days, 10.56 mg/kg
[19] = administration for three days, 21.12 mg/kg
[20] = seven days, repeat experiment in male mice, 1.32 mg/kg
[21] = seven days, repeat experiment in male mice, 2.64 mg/kg
[22] = seven days, repeat experiment in male mice, 5.28 mg/kg
[23] = seven days, repeat experiment in male mice, 10.56 mg/kg
[24] = seven days, repeat experiment in male mice, 21.12 mg/kg
[25] = male rats exposed to hypoxia, low-dose

O=C(O)c1cc(C(=O)O)c2c(n1)C(=O)C(=O)c1cc(C(=O)O)[nH]c1-2 [PQQ, pyrroloquinoline quinone]
weight 1 day ([1]; female mice, 1.32 mg/kg): 20.31 ± 1.29 g
weight 3 days ([1]; female mice, 1.32 mg/kg): 22.33 ± 1.91 g
weight 1 day ([1]; female mice, 2.64 mg/kg): 19.83 ± 1.19 g
weight 3 days ([1]; female mice, 2.64 mg/kg): 22.22 ± 1.28 g
weight 1 day ([1]; female mice, 5.28 mg/kg): 20.58 ± 1.07 g
weight 3 days ([1]; female mice, 5.28 mg/kg): 22.52 ± 1.71 g
weight 1 day ([1]; female mice, 10.56 mg/kg): 20.13 ± 1.64 g
weight 3 days ([1]; female mice, 10.56 mg/kg): 21.92 ± 1.83 g
weight 1 day ([1]; female mice, 21.12 mg/kg): 20.19 ± 1.34 g
weight 3 days ([1]; female mice, 21.12 mg/kg): 22.49 ± 1.77 g
weight 1 day ([1]; male mice, 1.32 mg/kg): 15.46 ± 1.04 g
weight 3 days ([1]; male mice, 1.32 mg/kg): 17.74 ± 1.30 g
weight 1 day ([1]; male mice, 2.64 mg/kg): 15.40 ± 1.03 g
weight 3 days ([1]; male mice, 2.64 mg/kg): 17.46 ± 1.29 g
weight 1 day ([1]; male mice, 5.28 mg/kg): 15.51 ± 1.11 g
weight 3 days ([1]; male mice, 5.28 mg/kg): 17.41 ± 1.23 g
weight 1 day ([1]; male mice, 10.56 mg/kg): 15.32 ± 1.10 g
weight 3 days ([1]; male mice, 10.56 mg/kg): 16.20 ± 1.03 g
weight 1 day ([1]; male mice, 21.12 mg/kg): 15.45 ± 0.97 g
weight 3 days ([1]; male mice, 21.12 mg/kg): 17.54 ± 1.14 g
Mice weight Female 1 day [2, 5]: 16.13 ± 1.20 g
Mice weight Female 7 days [2, 5]: 20.45 ± 1.37 g
Mice weight Male 1 day [2, 5]: 16.36 ± 1.47 g
Mice weight Male 7 days [2, 5]: 22.88 ± 1.78 g
Mice weight Male 14 days [2, 5]: 30.85 ± 2.32 g
Mice weight Female 1 day [2, 6]: 15.75 ± 1.07 g
Mice weight Female 7 days [2, 6]: 21.41 ± 1.62 g
Mice weight Male 1 day [2, 6]: 16.63 ± 1.87 g
Mice weight Male 7 days [2, 6]: 22.58 ± 1.41 g
Mice weight Male 14 days [2, 6]: 28.13 ± 2.70 g
Mice weight Female 1 day [2, 7]: 15.63 ± 1.12 g
Mice weight Female 7 days [2, 7]: 20.47 ± 2.11 g
Mice weight Male 1 day [2, 7]: 17.01 ± 1.91 g
Mice weight Male 7 days [2, 7]: 23.68 ± 2.02 g
Mice weight Male 14 days [2, 7]: 29.44 ± 2.15 g
Mice weight Female 1 day [2, 8]: 15.84 ± 1.33 g
Mice weight Female 7 days [2, 8]: 21.68 ± 1.66 g
Mice weight Male 1 day [2, 8]: 16.58 ± 1.68 g
Mice weight Male 7 days [2, 8]: 23.13 ± 1.73 g
Mice weight Male 14 days [2, 8]: 19.58 ± 2.11 g
Mice weight Female 1 day [2, 9]: 15.68 ± 0.91 g
Mice weight Female 7 days [2, 9]: 20.10 ± 2.07 g
Mice weight Male 1 day [2, 9]: 16.86 ± 1.71 g
Mice weight Male 7 days [2, 9]: 23.67 ± 1.77 g
Mice weight Male 14 days [2, 9]: 30.81 ± 2.76 g
Mice weight Female 1 day [2, 10]: 18.10 ± 1.19 g
Mice weight Female 7 days [2, 10]: 21.36 ± 1.98 g
Mice weight Male 1 day [2, 10]: 18.46 ± 1.36 g
Mice weight Male 7 days [2, 10]: 22.19 ± 2.69 g
Mice weight Female 1 day [2, 11]: 18.19 ± 1.24 g
Mice weight Female 7 days [2, 11]: 21.40 ± 1.92 g
Mice weight Male 1 day [2, 11]: 18.31 ± 1.01 g
Mice weight Male 7 days [2, 11]: 23.51 ± 3.09 g
Mice weight Female 1 day [2, 12]: 17.95 ± 1.28 g
Mice weight Female 7 days [2, 12]: 22.71 ± 1.38 g
Mice weight Male 1 day [2, 12]: 18.38 ± 1.85 g
Mice weight Male 7 days [2, 12]: 22.04 ± 3.25 g
Mice weight Female 1 day [2, 13]: 17.99 ± 1.41 g
Mice weight Female 7 days [2, 13]: 22.66 ± 1.68 g
Mice weight Male 1 day [2, 13]: 18.26 ± 1.15 g
Mice weight Male 7 days [2, 13]: 22.41 ± 1.79 g
Mice weight Female 1 day [2, 14]: 18.35 ± 1.62 g
Mice weight Female 7 days [2, 14]: 23.94 ± 2.10 g
Mice weight Male 1 day [2, 14]: 18.00 ± 1.78 g
Mice weight Male 7 days [2, 14]: 23.54 ± 3.92 g
Mice weight Female [2, 15]: 18.22 ± 1.16 g
Mice weight Male [2, 15]: 19.97 ± 0.84 g
Mice weight Female [2, 16]: 18.79 ± 1.14 g
Mice weight Male [2, 16]: 19.65 ± 0.83 g
Mice weight Female [2, 17]: 18.10 ± 0.76 g
Mice weight Male [2, 17]: 20.16 ± 1.18 g
Mice weight Female [2, 18]: 17.95 ± 1.14 g
Mice weight Male [2, 18]: 19.73 ± 0.85 g
Mice weight Female [2, 19]: 18.48 ± 1.01 g
Mice weight Male [2, 19]: 19.28 ± 0.95 g
Mice weight Male 1 day [2, 20]: 19.84 ± 1.84 g
Mice weight Male 7 days [2, 20]: 27.14 ± 2.66 g
Mice weight Male 1 day [2, 21]: 19.66 ± 1.08 g
Mice weight Male 7 days [2, 21]: 26.78 ± 3.14 g
Mice weight Male 1 day [2, 22]: 19.75 ± 1.27 g
Mice weight Male 7 days [2, 22]: 26.47 ± 2.88 g
Mice weight Male 1 day [2, 23]: 19.90 ± 1.06 g
Mice weight Male 7 days [2, 23]: 27.33 ± 2.27 g
Mice weight Male 1 day [2, 24]: 19.85 ± 1.00 g
Mice weight Male 7 days [2, 24]: 26.73 ± 2.37 g
Mice weight Female ([2]; single dose test, 2.64 mg/kg): 17.25 ± 1.23 g
Mice weight Male ([2]; single dose test, 2.64 mg/kg): 19.71 ± 0.52 g
Mice weight Female ([2]; single dose test, 5.28 mg/kg): 17.32 ± 1.35 g
Mice weight Male ([2]; single dose test, 5.28 mg/kg): 19.51 ± 0.68 g
Mice weight Female ([2]; single dose test, 10.56 mg/kg): 17.24 ± 0.96 g
Mice weight Male ([2]; single dose test, 10.56 mg/kg): 19.16 ± 0.34 g
effect on serum total protein content ([3]; female rats, high-dose): the same as the hypoxia model group
albumin (second column) ([3]; female rats, hypoxia, 0.91 mg/kg): 31.03 ± 0.98 g/L
albumin (second column) ([3]; female rats, hypoxia, 1.83 mg/kg): 29.67 ± 0.98 g/L
albumin (second column) ([3]; female rats, hypoxia, 3.66 mg/kg): 29.33 ± 0.62 g/L
albumin (second column) ([3]; female rats, hypoxia, 14.63 mg/kg): 30.16 ± 1.40 g/L
albumin (second column) ([3]; female rats, hypoxia, 7.3 l mg/kg): 31.49 ± 0.70 g/L
effect on total serum protein content ([3]; female rats, normoxia): no significant effects
albumin (second column) ([3]; female rats, normoxia, 3.66 mg/kg): 30.87 ± 1.41 g/L
effect on serum albumin ([3]; hypoxia exposed female rats (PQQ low-dose)): can reduce the effect of serum albumin in female rats increase caused by hypoxic exposure
effect on serum total protein content ([3]; hypoxia exposed female rats, low-dose): can slightly reduce
effect on serum albumin content [3, 25]: can reduce the effect of hypoxia exposure on the increase in serum albumin content
effect on serum total protein content [3, 25]: can slightly reduce
effect on serum total protein content ([3]; male rats, high-dose): the same as that of the hypoxia model group
albumin (second column) ([3]; male rats, hypoxia, 0.91 mg/kg): 22.55 ± 2.53 g/L
albumin (second column) ([3]; male rats, hypoxia, 1.83 mg/kg): 26.14 ± 2.04 g/L
albumin (second column) ([3]; male rats, hypoxia, 3.66 mg/kg): 28.60 ± 1.12 g/L
albumin (second column) ([3]; male rats, hypoxia, 7.31 mg/kg): 28.06 ± 1.31 g/L
albumin (second column) ([3]; male rats, hypoxia, 14.63 mg/kg): 28.38 ± 0.90 g/L
effect on blood glucose ([4]; acute hypoxia exposed female rats): increasing blood glucose
Blood sugar ([4]; 0.91 mg/kg): 8.59 ± 0.48 mmol/L
Blood sugar ([4]; 1.83 mg/kg): 8.28 ± 0.84 mmol/L
